These results are taken from patent US20220340875A1, “METHODS OF CULTURING AND/OR EXPANDING STEM CELLS AND/OR LINEAGE COMMITTED PROGENITOR CELLS USING AMIDO COMPOUNDS” (IDEAYA BIOSCIENCES, INC., priority 2018, published 2022).

The assay has as its target T1, hAhR (Homo sapiens, UniProt P35869).
T1 construct: Stably integrated DRE-luciferase cell lines were generated by transducing the both cell lines with Cignal XRE luciferase reporter (Qiagen) lentiviral particles; endogenous in cells
T1 sequence (P35869 11-848): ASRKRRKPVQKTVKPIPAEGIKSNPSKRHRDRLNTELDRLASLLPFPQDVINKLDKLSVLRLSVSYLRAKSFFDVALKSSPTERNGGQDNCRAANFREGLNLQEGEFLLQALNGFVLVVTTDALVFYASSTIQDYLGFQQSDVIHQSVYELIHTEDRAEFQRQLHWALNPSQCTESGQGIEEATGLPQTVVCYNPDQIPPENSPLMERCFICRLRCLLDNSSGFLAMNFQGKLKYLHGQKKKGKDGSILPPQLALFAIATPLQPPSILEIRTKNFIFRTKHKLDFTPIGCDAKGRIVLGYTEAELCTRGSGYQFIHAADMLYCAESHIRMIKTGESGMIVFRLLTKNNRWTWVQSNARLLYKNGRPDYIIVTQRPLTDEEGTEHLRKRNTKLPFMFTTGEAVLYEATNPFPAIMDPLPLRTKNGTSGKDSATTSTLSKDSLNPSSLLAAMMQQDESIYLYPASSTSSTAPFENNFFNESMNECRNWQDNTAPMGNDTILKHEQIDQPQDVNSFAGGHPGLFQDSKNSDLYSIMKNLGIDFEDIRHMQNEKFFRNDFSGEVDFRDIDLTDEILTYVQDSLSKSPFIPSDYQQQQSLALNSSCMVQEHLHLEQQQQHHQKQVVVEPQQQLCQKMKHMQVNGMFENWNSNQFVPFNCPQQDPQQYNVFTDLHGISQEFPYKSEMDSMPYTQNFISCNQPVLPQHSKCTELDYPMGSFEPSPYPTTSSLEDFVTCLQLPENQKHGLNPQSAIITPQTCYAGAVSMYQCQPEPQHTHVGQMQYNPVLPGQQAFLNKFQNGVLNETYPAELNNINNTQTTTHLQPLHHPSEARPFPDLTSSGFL
The assay is described as follows: AhR DRE-luciferase reporter transcriptional assay, antagonist mode (TCDD-induced). In kind it is cell-based. As to conditions: HEPG2 DRE-Luc cells, 3 nM TCDD, 24 hour incubation, relative IC50. How it is done: HEPG2 and HEPA1C1C7 cells were maintained in MEM and αMEM without nucleosides supplemented with 10% heat inactivated FBS respectively. Stably integrated DRE-luciferase cell lines were generated by transducing the both cell lines with Cignal XRE luciferase reporter (Qiagen) lentiviral particles according to the manufacturer protocol. For both cell lines stably integrated reporter cell lines were selected for the presence of 2 µg/mL puromycin. Following selection of stably integrated cell line pools, clonal cell lines were isolated by limiting dilution in 96-well plates. Transcriptional assays were performed by seeding 100 μL of cells at a density of 250,000 or 100,000 cells/mL, for HEPG2 and HEPA1C1C7 DRE-Luc cells respectively, into 96-well cell culture plates in OptiMEM supplemented with 0.5% heat inactivated FBS and allowed to attach overnight. For modulator assays, the compounds were added in a semi-log dose response using a D300e Digital Dispenser (Tecan) followed normalization with vehicle (DMSO). Immediately following compound addition 10 μL of 2,3,7,8-Tetrachlorodibenzo-p-dioxin (TCDD) was added to the cells to a final concentration of 3 nM or 0.3 nM for the HEPG2 and HEPA1C1C7 DRE-Luc cells respectively. Following 24 hour incubation the medium was removed and the cells were lysed in 25 μL of Reporter Lysis Buffer (Promega). Firefly luciferase activity was measured immediately following the addition of 50 μL Luciferase Assay Reagent (Promega). The percent maximal activity for each point was determined using the following equasion: (RLUsample-RLUvehicle−TCDD)/(RLUvehicle+TCDD RLUvehicle−TCDD)*100. The relative IC50, defined as the compound concentration required to reduce the TCDD induced response between the top and bottom plateau of each individual dose response curve by half, for each compound was determined using Prism 7 (GraphPad Software).
Compound `COc1cnccc1C(=O)Nc1ccc(-c2ncc3cc(C(F)(F)F)ccc3n2)cc1C` [Example 144, 3-methoxy-N-(2-methyl-4-(6-(trifluoromethyl)quinazolin-2-yl)phenyl)isonicotinamide] displayed an IC50 of less than 200 nM.

For the compound `Cc1cc(NC(=O)c2ccnn2C)ncc1-c1ccc2cc(F)ccc2n1` [Example 043, N-(5-(6-fluoroquinolin-2-yl)-4-methylpyridin-2-yl)-1-methyl-1H-pyrazole-5-carboxamide], the IC50 is 1000 to 10000 nM.

`CC(=O)N(C)c1ccc(-c2ncc3cc(C(F)(F)F)ccc3n2)cc1C` [Example 130, N-methyl-N-(2-methyl-4-(6-(trifluoromethyl)quinazolin-2-yl)phenyl)acetamide]: the IC50 is less than 200 nM.

With `Cc1cc(-c2ccc3c(ccn3C)c2)ccc1NC(=O)c1ccnn1C` [Example 083, 1-methyl-N-(2-methyl-4-(1-methyl-1H-indol-5-yl)phenyl)-1H-pyrazole-5-carboxamide], the IC50 lay in the range of 500 to 1000 nM.

In the case of `Cc1c(NC(=O)c2ccnn2C)ccc(-c2ncc3nc(C(F)(F)F)ccc3n2)c1C` [Example 190, N-(2,3-dimethyl-4-(6-(trifluoromethyl)pyrido[3,2-d]pyrimidin-2-yl)phenyl)-1-methyl-1H-pyrazole-5-carboxamide], the IC50 lay within 1000 to 10000 nM.

On to `Cc1cc(-c2ccc3cc(C#N)ccc3n2)ccc1NC(=O)c1ccnn1C` [Example 073, N-(4-(6-cyanoquinolin-2-yl)-2-methylphenyl)-1-methyl-1H-pyrazole-5-carboxamide], for which the IC50 was less than 200 nM.

For the compound `Cc1cc(-c2ccc3cc(F)ccc3n2)ccc1NC(=O)N1CCOCC1` [Example 041, N-(4-(6-fluoroquinolin-2-yl)-2-methylphenyl)morpholine-4-carboxamide], the concentration for half-maximal inhibition (IC50) fell in the range of 1000 to 10000 nM.

As for `Cc1c(-c2ncc3nc(C(F)(F)F)cc(C)c3n2)ccc(N(C)C(=O)c2ccnn2C)c1F` [Example 177, N-(2-fluoro-3-methyl-4-(8-methyl-6-(trifluoromethyl)pyrido[3,2-d]pyrimidin-2-yl)phenyl)-N,1-dimethyl-1H-pyrazole-5-carboxamide], the concentration for half-maximal inhibition (IC50) was less than 200 nM.

`Cc1cc(C(=O)N(C)c2ccc(-c3ncc4nc(OC(F)(F)F)cc(C)c4n3)cc2C)ccn1` [Example 161, N,2-dimethyl-N-(2-methyl-4-(8-methyl-6-(trifluoromethoxy)pyrido[3,2-d]pyrimidin-2-yl)phenyl)isonicotinamide] gave an IC50 of 200 to 500 nM.

As to `Cc1cc(-c2ncc3cc(C(F)(F)F)ccc3n2)ccc1NC(=O)c1c(C)cnn1C` [Example 215, 1,4-dimethyl-N-(2-methyl-4-(6-(trifluoromethyl)quinazolin-2-yl)phenyl)-1H-pyrazole-5-carboxamide], the 50% inhibitory concentration (IC50) was less than 200 nM.

In the case of `Cc1cc(NC(=O)c2ccnn2C)ccc1-c1ccc2cc(F)ccc2n1` [Example 050, N-(4-(6-fluoroquinolin-2-yl)-3-methylphenyl)-1-methyl-1H-pyrazole-5-carboxamide], the IC50 was in the range of 500 to 1000 nM.

In the case of `Cc1cc(-c2nc3ccc(C(F)(F)F)cc3s2)ccc1NC(=O)c1ccnn1C` [Example 101, 1-methyl-N-(2-methyl-4-(6-(trifluoromethyl)benzo[d]thiazol-2-yl)phenyl)-1H-pyrazole-5-carboxamide], the IC50 lay within 200 to 500 nM.

Take `Cc1cc(-c2ncc3cc(C(F)(F)F)ccc3n2)ccc1N(C)C(=O)c1c(C)cnn1C` [Example 217, N,1,4-trimethyl-N-(2-methyl-4-(6-(trifluoromethyl)quinazolin-2-yl)phenyl)-1H-pyrazole-5-carboxamide]: the IC50 was less than 200 nM.

On to `Cc1cc(-c2ccc3cccc(F)c3n2)ccc1NC(=O)OC(C)(C)C` [Example 022, tert-butyl (4-(8-fluoroquinolin-2-yl)-2-methylphenyl)carbamate], for which the IC50 lay within 1000 to 10000 nM.

On to `Cc1cc(-c2ccc3cc(C(F)(F)F)ccc3n2)ccc1NC(=O)c1ccnn1C` [Example 001, 1-methyl-N-(2-methyl-4-(6-(trifluoromethyl)quinolin-2-yl)phenyl)-1H-pyrazole-5-carboxamide], for which the IC50 was 200 to 500 nM.

As to `Cc1cc(-c2ccc3cccc(C)c3n2)ccc1NC(=O)OC(C)(C)C` [Example 017, tert-butyl (2-methyl-4-(8-methylquinolin-2-yl)phenyl)carbamate], the IC50 was in the range of 1000 to 10000 nM.

`Cc1cc(-c2ccc3cc(F)cc(Cl)c3n2)ccc1NC(=O)c1ccnn1C` [Example 049, N-(4-(8-chloro-6-fluoroquinolin-2-yl)-2-methylphenyl)-1-methyl-1H-pyrazole-5-carboxamide]: the IC50 fell in the range of 200 to 500 nM.

Regarding `Cc1cc(-c2ccc3cc(C(F)(F)F)cc(C)c3n2)ccc1N(C)C(=O)c1ccnn1CCO` [Example 201, 1-(2-hydroxyethyl)-N-methyl-N-(2-methyl-4-(8-methyl-6-(trifluoromethyl)-quinolin-2-yl)phenyl)-1H-pyrazole-5-carboxamide], the half-inhibitory concentration (IC50) is less than 200 nM.

`Cc1cc(-c2ncc3ccn(CC(F)(F)F)c3n2)ccc1NC(=O)c1ccnn1C` [Example 091, 1-Methyl-N-(2-methyl-4-(7-(2,2,2-trifluoroethyl)-7H-pyrrolo[2,3-d]pyrimidin-2-yl)phenyl)-1H-pyrazole-5-carboxamide] displayed a half-maximal inhibitory concentration (IC50) of 200 to 500 nM.

Compound `Cc1cc(-c2ccc3cc(Cl)ccc3n2)ccc1NC(=O)c1ccnn1C` [Example 065, N-(4-(6-Chloroquinolin-2-yl)-2-methylphenyl)-1-methyl-1H-pyrazole-5-carboxamide] came in with an IC50 of 200 to 500 nM.

Consider `Cc1cc(-c2nc(N)c3nc(C(F)(F)F)cc(C)c3n2)ccc1NC(=O)c1ccnn1C` [Example 153, N-(4-(4-amino-8-methyl-6-(trifluoromethyl)pyrido[3,2-d]pyrimidin-2-yl)-2-methylphenyl)-1-methyl-1H-pyrazole-5-carboxamide], for which the IC50 was less than 200 nM.

The compound `Cc1cc(-c2ncc3cc(C(F)(F)F)ccc3n2)ccc1N(C)C(=O)c1cnc[nH]1` [Example 131, N-methyl-N-(2-methyl-4-(6-(trifluoromethyl)quinazolin-2-yl)phenyl)-1H-imidazole-5-carboxamide] came in with an IC50 of 200 to 500 nM.

The compound `Cc1cc(C(=O)N(C)c2ccc(-c3ncc4nc(C(F)(F)F)cc(C)c4n3)cc2C)ccn1` [Example 150, N,2-dimethyl-N-(2-methyl-4-(8-methyl-6-(trifluoromethyl)pyrido[3,2-d]pyrimidin-2-yl)phenyl)isonicotinamide] registered an IC50 of less than 200 nM.

The compound `Cc1cc(-c2ccc3cc(F)ccc3n2)ccc1NC(=O)c1ccnnc1` [Example 029, N-(4-(6-fluoroquinolin-2-yl)-2-methylphenyl)pyridazine-4-carboxamide] returned an IC50 of 1000 to 10000 nM.

Turning to `Cc1cc(C(=O)Nc2ccc(-c3ncc4cc(C(F)(F)F)ccc4n3)cc2C)c(C)cn1` [Example 125, 2,5-dimethyl-N-(2-methyl-4-(6-(trifluoromethyl)quinazolin-2-yl)phenyl)isonicotinamide], the IC50 was less than 200 nM.

The compound `Cc1cc(-c2ccc3ccccc3n2)ccc1NC(=O)c1ccnn1C` [Example 070, 1-methyl-N-(2-methyl-4-(quinolin-2-yl)phenyl)-1H-pyrazole-5-carboxamide] displayed an IC50 of 500 to 1000 nM.

For `Cc1cc(-c2ccc3c(C(F)(F)F)cn(C)c3c2)ccc1NC(=O)c1ccnn1C` [Example 086, 1-methyl-N-(2-methyl-4-(1-methyl-3-(trifluoromethyl)-1H-indol-6-yl)phenyl)-1H-pyrazole-5-carboxamide], the IC50 was 1000 to 10000 nM.
